Patent US12145923B2, “Tetrahydroisoquinoline compound, preparation method therefor, pharmaceutical composition containing same, and use thereof” (SHANGHAI INSTITUTE OF MATERIA MEDICA, CHINESE ACADEMY OF …, priority 2018, dated 2024)
“And” between values parts separate entries of the source, which are not always exact repeats. Equal values may be shown once. Read-outs that look alike come from different tables or passages of the source. Blank lines part the entries; values can stand above or below the molecule they belong to.

Legend:
[1] = Cytotoxicity on RAW 264.7 cells (CCK-8 method); format: cell-based, mouse; conditions: mouse, RAW 264.7 cells; drug concentration required to cause median cytotoxicity, RAW 264.7
Protocol: (§1) Mouse RAW 264.7 cells were purchased from American Type Culture Collection (Manassas, VA, USA), and cultivated in DMEM culture medium (Hyclone, South Logan, UT, USA) containing 10% fetal bovine serum (Hyclone, South Logan, UT, USA). Cells were collected and counted before use, and inoculated in a 96-well plate (Corning, NY, USA) at 1×10^5/well. […] 20 μl of CCK-8 solution (Dojindo, Kumamoto, Japan) was added at 30 min before the end of the culture. After the cultivation was ended, the absorbance OD value was measured at 450 nm (reference 650 nm) on amicroplate reader (Molecular Devices, Sunnyvale, CA, USA). The toxicity of the compound on RAW 264.7 cells was calculated by dividing the OD value of the test sample by the OD value of the cell control well, which was labeled as the cell survival rate M %.

RAW 264.7 cells = experiment: Cytotoxicity on RAW 264.7 cells (CCK-8 method); format: cell-based, mouse
Protocol: as §1

[2] = system: acute inflammation model of mouse back air sac; experiment: Acute inflammation model of mouse back air sac (carrageenan); format: in vivo; conditions: oral gavage 5 mg/kg
Protocol: On the first day of the experiment, mice were subcutaneously injected with 3 ml of air on the back, and subcutaneously injected with 1.5 ml of air on the back on day 3, and subcutaneously injected with 1 ml of 2% carrageenan (Sigma-Aldrich, St. Louis, MO, USA) on the back on day 6 for sensitization. 4 hours after sensitization, secretion in the air sac was lavaged with phosphate buffer solution. The lavage fluid was used for white blood cell count and inflammatory factor detection. […] Tumor necrosis factor-α and interleukin-6 detection kits were purchased from BD Pharmingen (San Diego, CA, USA).

Rat pharmacokinetic test = format: in vivo
Protocol: Six male healthy rats weighing 150-200 g were randomly divided into 2 groups (n=3). Compounds 14, 16, 17, 18, 22 and 29 of the present invention were administered by gavage and intravenous injection, respectively, at a administration volume of 10 mL/kg. The drug was formulated with DMSO/Tween 80/saline solution (5:5:90, v/v/v). The rats were fasted for 12 h before testing, water ad lib, and uniformly feeded 2 h after administration.
gavage administration: 0.25, 0.5, 1.0, 2.0, 4.0, 6.0, 8.0 and 24 h after administration:
intravenous administration: 5 min, 0.25, 0.5, 1.0, 2.0, 4.0, 6.0, 8.0 and 24 h after administration;
0.3 mL of venous blood was collected at the above time points via the rat eye vein venous plexus, placed in heparinized test tube, centrifuged at 11000 rpm for 5 min. Plasma was separated and frozed in a −20° C. refrigerator.
The concentration of compounds in rat plasma was determined by LC/MS/MS. The pharmacokinetic parameters after administration were calculated by a non-compartmental model of DAS 3.0 software.

[3] = male, plasma, intravenous injection, 10 mg/kg
[4] = male, plasma, po, gavage, 20 mg/kg

Compound: COc1cc2c(cc1OC)[C@H](CCc1c[nH]c3ccccc13)N(C=O)CC2 [(S)-A1, (S)-1-(2-(1H-indol-3-yl)ethyl)-6,7-dimethoxy-3,4-dihydroisoquinoline-2(1H)-formaldehyde]
CC50 at 4 h [1]: > 50 µM
Cell survival rate/% (RAW 264.7 cells; RAW 264.7, 0.5 μM): 112.3% and 103%
Cell survival rate/% (RAW 264.7 cells; RAW 264.7, 5 μM): 126.4% and 100.2%
Cell survival rate/% (RAW 264.7 cells; RAW 264.7, 50 μM): 88.8% and 102%

Compound: COc1cc2c(cc1OC)[C@H](CCc1c[nH]c3cc(C)ccc13)N(C=O)CC2 [(S)-C5, (S)-6,7-dimethoxy-1-(2-(6-methyl-1H-indol-3-yl)ethyl)-3,4-dihydroisoquinoline-2(1H)-formaldehyde]
Cell survival rate/% (RAW 264.7 cells; RAW 264.7, 0.5 μM): 98%
Cell survival rate/% (RAW 264.7 cells; RAW 264.7, 5 μM): 109.4%
Cell survival rate/% (RAW 264.7 cells; RAW 264.7, 50 μM): 93.4%
secretion level of interleukin-6 in lavage [2]: reduce
secretion level of tumor necrosis factor-α in lavage [2]: reduce
inflammatory response ([2]; 24 h and 1 h before sensitization): significantly reduce

Compound: COc1cc2c(cc1OC)[C@H](CCc1c[nH]c3cc(F)ccc13)N(C=O)CC2 [(S)-C6, (S)-1-(2-(6-fluoro-1H-indol-3-yl)ethyl)-6,7-dimethoxy-3,4-dihydroisoquinoline-2(1H)-formaldehyde]
CC50 at 4 h [1]: > 50 µM
Cell survival rate/% (RAW 264.7 cells; RAW 264.7, 0.5 μM): 108.6%
Cell survival rate/% (RAW 264.7 cells; RAW 264.7, 5 μM): 118.4%
Cell survival rate/% (RAW 264.7 cells; RAW 264.7, 50 μM): 93.7%

AUC0-t (Rat pharmacokinetic test; gavage, 20 mg/kg): 9232.3 ng·h/mL
AUC0-t (Rat pharmacokinetic test; intravenous injection, 10 mg/kg): 6761.8 ng·h/mL
AUC(0-inf) (Rat pharmacokinetic test; [3]): 6760 ng·h/mL
MRT (Rat pharmacokinetic test; [3]): 0.9 h
half-life (Rat pharmacokinetic test; [3]): 0.2 h
Vd (Rat pharmacokinetic test; male, plasma, intravenous injection, 10 mg/kg, read-out: Vss): 0.53 L/kg
AUC0-t (Rat pharmacokinetic test; male, plasma, iv, 10 mg/kg, intravenous injection, 10 mg/kg, read-out: AUC0-t): 6760 ng·h/mL
bioavailability (Rat pharmacokinetic test; male, plasma, oral, gavage 20 mg/kg vs intravenous 10 mg/kg, dosage standardized, read-out: F (absolute bioavailability)): 68.3%
Cmax (Rat pharmacokinetic test; male, plasma, po, 20 mg/kg, gavage): 2380 ng/mL
AUC0-t (Rat pharmacokinetic test; male, plasma, po, 20 mg/kg, gavage, 20 mg/kg, read-out: AUC0-t): 9230 ng·h/mL
AUC(0-inf) (Rat pharmacokinetic test; [4]): 9230 ng·h/mL
MRT (Rat pharmacokinetic test; [4]): 2.6 h
Tmax (Rat pharmacokinetic test; [4]): 1 h
half-life (Rat pharmacokinetic test; [4]): 1 h
Compound: CCOc1cc2c(cc1OC)CCN(C=O)[C@H]2CCc1c[nH]c2cc(C)ccc12 [(S)-C7, (S)-7-ethoxy-6-methoxy-1-(2-(6-methyl-1H-indol-3-yl)ethyl)-3,4-dihydroisoquinoline-2(1H)-formaldehyde]
CC50 at 4 h [1]: > 50 µM
Cell survival rate/% (RAW 264.7 cells; RAW 264.7, 0.5 μM): 71.3%
Cell survival rate/% (RAW 264.7 cells; RAW 264.7, 5 μM): 93.4%
Cell survival rate/% (RAW 264.7 cells; RAW 264.7, 50 μM): 96.1%
